Experimental findings from patent US11214554B2, “Indoleamine 2,3-dioxygenase inhibitor, method for preparation and use thereof” (NANJING HUAWE MEDICINE TECHNOLOGY GROUP CO., LTD., priority 2018, dated 2022) are described below.

Each structure is given as a SMILES string. Where two headings read alike, the source gives them in different places.

The target of one data set is IDO1 enzyme (Homo sapiens (Human), UniProt P14902). In words: Determination of the IDO1 inhibitory activity of compounds (enzyme assay, absorbance at 480 nm). The data set is classed as biochemical. To be noted: 50 nM IDO1, 37° C., 30 minutes, pH 6.5, 1% DMSO; average of two tests. As to the method: 100 mM PBS containing 400 μM L-tryptophan, 20 mM ascorbate, 20 μM methylene blue and 1000 U/ml catalase, pH 6.5
All compounds were dissolved with DMSO. During the assay, each compound was diluted to a concentration as needed. The compound of each concentration was added to multi-wells, and the final concentration of DMSO was controlled at 1%.
a.) the reaction mixture was prepared by adding 50 nM IDO1 and the desired concentration of the test compound to 100 μL of IDO1 assay buffer. IDO1 and assay buffer need to be preheated to 37° C.
b.) The mixture was reacted in a constant temperature water tank at 37° C. for 30 minutes.
c.) 50 μL of 30% trichloroacetic acid was added.
d.) The above mixture was reacted in a constant temperature water tank at 52° C. for 30 minutes.
e.) The reaction mixture was centrifuged at 12000 g for 10 minutes at room temperature.
f.) 100 μL of the obtained supernatant and 100 μL of Ehrlich reagent were mixed.
g.) the absorbance at 480 nm was measured using an M5 microplate reader.
4. Data Analysis Inhibition rate=(ODpostive−ODsample)/(ODpositive−ODnegative)*100% 5. Results and Discussion
In this experiment, the inhibitory activity of the test compounds on the IDO1 enzyme was tested. Compounds of each diluted concentration were tested in multi-wells. The final concentration of the reaction system in DMSO was controlled to 1%. The inhibition rate was tested twice, and the average value was taken.

Data set [1] concerns the target IDO protease in highly expressed HeLa cells (Homo sapiens (Human), UniProt P14902). Description: Inhibitory activity of compounds on IDO protease in highly expressed HeLa cells. The class given is cell-based. The note with it: highly expressed HeLa cell line. As to the method:
This method was used to determine the inhibitory effect of the compounds of the invention on the inhibitory activity of IDO protease in highly expressed HeLa cells.
Highly expressed HeLa cell line
a.) 50 μL of 30% trichloroacetic acid was added.
b.) The mixture was reacted in a constant temperature water tank at 52° C. for 30 minutes.
c.) The above mixture was centrifuge at 12,000 g for 10 minutes at room temperature.
d.) 100 μL of the supernatant was mixed with 100 μL of Ehrlich reagent.
e.) the absorbance was measured at 480 nm using an M5 microplate reader.
The software Graphpad Prism 5 was used with the calculation formula of log(inhibitor) vs. normalized response to perform IC50 curve fitting and the IC50 value was calculated.

Data set [2] is described as follows: Pharmacokinetic evaluation in SD rats after oral administration by single gavage. The data set is classed as in vivo. The note with it: rat, PO 75 mg/kg, plasma; for half-life: read-out: t½ (converted). As to the method: 1. Experimental animals: 100 (half male and half female) SPF grade SD rats were purchased from Shanghai Cypre-Bikai Experimental Animal Co., Ltd. Among them, 72 medically qualified and healthy SD rats without abnormality (half male and half female) were used for the study. 2. Animal Administration
72 SD rats (half male and half female) were tested according to the following table. The drug samples were stirred at least 10 minutes before administration.
Blood samples were obtained through the jugular vein puncture, and each sample was collected for about 0.25 mL and added with heparin sodium for anticoagulation. The blood sampling was performed at time points as follows:
for oral administration group, before administration, 0.25 h, 0.5 h, 1 h, 2 h, 4 h, 6 h, 8 h, 24 h after administration.
After collection, the blood samples were placed on ice and the plasma was separated by centrifugation (centrifugation conditions: 8000 rpm, 6 minutes, 2-8° C.). The collected plasma was stored at −80° C. before analysis. Plasma samples were analyzed by the analysis department of the experimental institution using LC-MS/MS for the content of the test compound in the rat plasma. The LLOQ of the detection substance was 1 ng/mL.
According to the blood plasma concentration data of the drugs, the pharmacokinetic calculation software WinNonlin5.2 non-compartmental model was used to calculate the pharmacokinetic parameters AUC0-t, Cmax, Tmax, T1/2 d and other parameters of the test samples and their average value and standard deviation.
When pharmacokinetic parameters were calculated for samples with lower concentration than the lower limit of quantification, samples taken before the curve reached Cmax should be calculated with zero value, and samples taken after the curve reached Cmax should be calculated with non-quantitative (BLQ).
The main pharmacokinetic parameters of compounds in SD rats plasma after oral administration by single gavage

IDO protease in highly expressed HeLa cells, sequence (P14902 whole entry): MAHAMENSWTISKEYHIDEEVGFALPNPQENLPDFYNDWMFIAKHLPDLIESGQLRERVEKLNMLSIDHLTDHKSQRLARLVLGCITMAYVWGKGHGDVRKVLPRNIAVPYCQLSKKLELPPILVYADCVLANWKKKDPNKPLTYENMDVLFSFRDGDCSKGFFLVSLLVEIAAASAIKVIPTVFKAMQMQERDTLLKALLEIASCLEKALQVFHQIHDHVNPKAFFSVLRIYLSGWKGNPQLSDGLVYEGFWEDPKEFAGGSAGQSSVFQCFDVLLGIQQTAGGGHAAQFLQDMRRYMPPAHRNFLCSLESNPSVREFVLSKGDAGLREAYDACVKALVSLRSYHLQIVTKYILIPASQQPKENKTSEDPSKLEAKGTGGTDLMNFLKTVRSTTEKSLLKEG
IDO1 enzyme, sequence (P14902 whole entry, species assumed): as the sequence (P14902 whole entry) above

One may read the IC50 as the concentration needed to halve the response being measured. A low value points to greater potency. With `O/N=C(\Nc1ccc(F)c(C(F)(F)F)c1)c1nonc1NOCCc1cccs1` [Compound I-7], the IC50 at IDO1 enzyme stood at 0.113 µM.
Still for that read-out and setting: under `Cc1ccc(CCONc2nonc2/C(=N/O)Nc2ccc(F)c(Br)c2)cc1` [Compound I-8] stands 0.094 µM; under `O=C(NCCONc1nonc1/C(=N/O)Nc1ccc(F)c(C(F)(F)F)c1)c1ccc(F)cc1` [Compound I-9], 0.085 µM; under `Nc1ncc(C(=O)NCCONc2nonc2/C(=N/O)Nc2ccc(F)c(Cl)c2)s1` [Compound I-10], 0.09 µM.
On the same count and under the same terms, with `CS(=O)(=O)NCCONc1nonc1/C(=N/O)Nc1ccc(F)c(F)c1` [Compound I-13] the figure was 0.124 µM.
Same read-out and setting: under `OCCONc1nonc1/C(=N/O)Nc1ccc(F)c(Br)c1` [Compound I-14] stands 0.081 µM; under `OCCCONc1nonc1/C(=N/O)Nc1ccc(F)c(Cl)c1` [Compound I-15], 0.093 µM.
Consider `NC(CCONc1nonc1/C(=N/O)Nc1ccc(F)c(Br)c1)C(=O)O` (stereo not drawn) [Compound I-16], for which the IC50 in data set [1] came to 0.035 µM; on IDO1 enzyme, 0.042 µM.
Compound `O=C(O)CCCONc1nonc1/C(=N/O)Nc1ccc(F)c(Br)c1` [Compound I-18] returned an IC50 against IDO1 enzyme of 0.183 µM.
Broadly, the AUC(0-inf) is total exposure, with the tail of the curve extrapolated. Lower therefore signals less exposure. The term Cmax denotes the peak of the concentration-time curve. Broadly, the Tmax is the time from dosing to the highest level. Compound `NS(=O)(=O)NC1(CONc2nonc2/C(=N/O)Nc2ccc(F)c(Br)c2)CC1` [Compound I-20] gave an IC50 in data set [1] of 0.008 µM. Besides, in data set [2] (female SD rats), the AUC(0-inf) is 1990 ng·h/mL, the Cmax worked out at 3330 ng/mL, the Tmax came to 0.5 h and the half-life is 1.42 h. In data set [2] (male SD rats), the AUC(0-inf) is 2390 ng·h/mL, the Cmax was found to be 4240 ng/mL, the time of peak concentration (Tmax) came to 1 h and the half-life was 1.98 h. The compound also returned an IC50 on IDO1 enzyme of 0.018 µM.
On to `COC(=O)C(CCONc1nonc1/C(=N/O)Nc1ccc(F)c(F)c1)NS(N)(=O)=O` (stereo not drawn) [Compound I-22], for which the IC50 against IDO1 enzyme stood at 0.064 µM.
Take `NS(=O)(=O)NC(CO)CONc1nonc1/C(=N/O)Nc1ccc(F)cc1` (stereo not drawn) [Compound I-23]: the IC50 in data set [1] worked out at 0.038 µM; against IDO1 enzyme it was 0.036 µM.
Compound `NS(=O)(=O)NCCONc1nonc1/C(=N/O)Nc1ccc(F)c(Br)c1` [Compound I-24] registered an IC50 in data set [1] of 0.005 µM. Moreover, in data set [2] (female SD rats), the AUC(0-inf) worked out at 18700 ng·h/mL, the peak level (Cmax) was 7240 ng/mL, the Tmax was determined as 1 h and the half-life was 2.34 h. Moreover, in data set [2] (male SD rats), the AUC(0-inf) stood at 20700 ng·h/mL, the Cmax turned out to be 8760 ng/mL, the Tmax worked out at 1 h and the half-life was 2.12 h. At IDO1 enzyme, this compound had an IC50 of 0.008 µM.
As to `NS(=O)(=O)NCCONc1nonc1/C(=N/O)NCc1ccccc1` [Compound I-25], on IDO1 enzyme, the IC50 is 0.068 µM.
At IDO1 enzyme, `NS(=O)(=O)NCCCCONc1nonc1/C(=N/O)Nc1ccc(F)c(Br)c1` [Compound I-26] came in with an IC50 of 0.092 µM.
Regarding `CC(N/C(=N\O)c1nonc1NOCCNS(N)(=O)=O)c1ccccc1` (stereo not drawn) [Compound I-27], the IC50 is 0.026 µM in data set [1] and 0.042 µM against IDO1 enzyme.
In turn, `NS(=O)(=O)NC1CCC(ONc2nonc2/C(=N/O)Nc2ccc(F)c(F)c2)CC1` (stereo not drawn) [Compound I-31] gave an IC50 against IDO1 enzyme of 0.042 µM.
Consider `O/N=C(\Nc1ccc(F)c(F)c1)c1nonc1NOC1CCC(O)CC1` (stereo not drawn) [Compound I-35], for which, at IDO1 enzyme, 0.094 µM corresponded to half-maximal inhibition (IC50).
On the same count and under the same terms, with `O/N=C(\Nc1ccc(F)c(F)c1)c1nonc1N1CCCCO1` [Compound I-38] the figure was 0.078 µM.
On the same count and under the same terms, under `O/N=C(\Nc1ccc(F)c(F)c1)c1nonc1NOC1CCCCO1` (stereo not drawn) [Compound I-39] stands 0.142 µM.
Take `O=C(NCCONc1nonc1/C(=N/O)Nc1ccc(F)c(Br)c1)Nc1cc(F)cc(F)c1` [Compound I-40]: in data set [2] (female SD rats), the AUC(0-inf) amounted to 7540 ng·h/mL, the concentration peaked (Cmax) at 4240 ng/mL, the Tmax is 1 h and the half-life was 1.45 h. In data set [2] (male SD rats), the area under the curve AUC(0-inf) was 8250 ng·h/mL, the concentration peaked (Cmax) at 4760 ng/mL, the Tmax amounted to 1 h and the half-life was 1.67 h.
With `O/N=C(\Nc1ccc(F)c(Br)c1)c1nonc1NOCCONc1nonc1/C(=N/O)Nc1ccc(F)c(Br)c1` [Compound I-43], the IC50 in data set [1] turned out to be 0.038 µM; against IDO1 enzyme, 0.035 µM.
With `NS(=O)(=O)NOCCONc1nonc1/C(=N/O)Nc1ccc(F)c(Br)c1` [Compound I-44], the IC50 against IDO1 enzyme came to 0.078 µM.
Still for that read-out and setting: with `O=C1NC(=O)C2(CCC(ONc3nonc3/C(=N/O)Nc3ccc(F)c(F)c3)CC2)N1` (stereo not drawn) [Compound I-49] the figure was 0.066 µM.
Turning to `O=C(CCC1CCC(ONc2nonc2/C(=N/O)Nc2ccc(F)c(F)c2)CC1)Nc1ccc(F)cc1` (stereo not drawn) [Compound I-50], the IC50 in data set [1] turned out to be 0.021 µM; against IDO1 enzyme it was 0.028 µM.
As to `COC(=O)CSNc1nonc1/C(=N/O)Nc1ccc(F)cc1` [Compound I-51], on IDO1 enzyme, the IC50 amounted to 0.083 µM.
For the compound `NS(=O)(=O)NCCNc1nonc1C(=NO)Nc1ccc(F)c(Br)c1` [INCB024360, Epacadostat, reference compound], in data set [2] (female SD rats), the AUC(0-inf) was determined as 11300 ng·h/mL, the Cmax turned out to be 3410 ng/mL and the half-life was 2.51 h. Also, in data set [2] (male SD rats), the area under the curve AUC(0-inf) turned out to be 12200 ng·h/mL, the Cmax amounted to 3940 ng/mL, the Tmax was found to be 0.5 h and the half-life was 2.24 h.
